Target: T1, AR (Homo sapiens, UniProt P10275)
T1 sequence (P10275 669-920 limits assumed): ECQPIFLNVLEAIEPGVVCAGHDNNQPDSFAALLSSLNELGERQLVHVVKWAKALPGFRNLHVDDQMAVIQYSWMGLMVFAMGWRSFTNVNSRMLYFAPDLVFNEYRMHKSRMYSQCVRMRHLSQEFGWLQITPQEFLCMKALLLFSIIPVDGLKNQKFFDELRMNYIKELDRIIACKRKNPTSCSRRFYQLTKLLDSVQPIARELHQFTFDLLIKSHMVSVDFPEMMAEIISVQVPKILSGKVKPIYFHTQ
Experiment: GeneBlazer assay, inhibition against AR activity
Assay type: cell-based
Conditions: Table II
Description: Tables II, III and IV show % inhibition against AR activity at 10 μm within a GeneBlazer assay, and IC50 values (nM) in GeneBlazer assay.

| inhibition at 10 µM [%] | IC50 [nM] | Compound |
| --- | --- | --- |
| 111 | – | CC(C)(C)n1nnnc1C(/C=C/c1ccccc1)N1CCN(c2c(Cl)cncc2Cl)CC1 (centres unmarked) [Compound 43, (E)-1-(1-(1-(tert-butyl)-1H-tetrazol-5-yl)-3-phenylallyl)-4-(3,5-dichloropyridin-4-yl)piperazine] |
| 102 | 381 | CCCCn1nnnc1C(c1cc2ccccc2[nH]1)N1CCN(c2c(Cl)cncc2Cl)CC1 (centres unmarked) [Compound 46, 2-((1-butyl-1H-tetrazol-5-yl)(4-(3,5-dichloropyridin-4-yl)piperazin-1-yl)methyl)-1H-indole] |
| 114 | 182 | CC(C)(C)n1nnnc1C(c1cc2ccccc2[nH]1)N1CCN(c2c(Cl)cncc2Cl)CC1 (centres unmarked) [Compound 47, 2-((1-(tert-butyl)-1H-tetrazol-5-yl)(4-(3,5-dichloropyridin-4-yl)piperazin-1-yl)methyl)-1H-indole] |
| 100 | – | CCCCn1nnnc1C(c1ccc(C)o1)N1CCN(c2c(Cl)cncc2Cl)CC1 (centres unmarked) [Compound 48, 1-((1-butyl-1H-tetrazol-5-yl)(5-methylfuran-2-yl)methyl)-4-(3,5-dichloropyridin-4-yl)piperazine] |
| 100 | – | Cc1ccc(C(c2nnnn2C(C)(C)C)N2CCN(c3c(Cl)cncc3Cl)CC2)o1 (centres unmarked) [Compound 49, 1-((1-(tert-butyl)-1H-tetrazol-5-yl)(5-methylfuran-2-yl)methyl)-4-(3,5-dichloropyridin-4-yl)piperazine] |
| 96.7 | – | CC(C)n1nnnc1C(c1ccco1)N1CCN(c2c(Cl)cncc2Cl)CC1 (centres unmarked) [Compound 50, 1-(3,5-dichloropyridin-4-yl)-4-(furan-2-yl(1-isopropyl-1H-tetrazol-5-yl)methyl)piperazine] |
| 101 | – | CC(C)n1nnnc1C(c1ccnc2ccccc12)N1CCN(c2c(Cl)cncc2Cl)CC1 (centres unmarked) [Compound 51, 4-((4-(3,5-dichloropyridin-4-yl)piperazin-1-yl)(1-isopropyl-1H-tetrazol-5-yl)methyl)quinoline] |
| 95.8 | – | CCCCC(c1nnnn1C(C)C)N1CCN(c2c(Cl)cncc2Cl)CC1 (centres unmarked) [Compound 52, 1-(3,5-dichloropyridin-4-yl)-4-(1-(1-isopropyl-1H-tetrazol-5-yl)pentyl)piperazine] |
| 72.4 | – | COC(=O)Cn1nnnc1C(c1cccc(O)c1)N1CCN(c2c(Cl)cncc2Cl)CC1 (centres unmarked) [Compound 53, Methyl 2-(5-((4-(3,5-dichloropyridin-4-yl)piperazin-1-yl)(3-hydroxyphenyl)methyl)-1H-tetrazol-1-yl)acetate] |
| 51.3 | – | CCCCn1nnnc1C(c1cccc(O)c1)N1CCN(c2ccc(F)cc2)CC1 (centres unmarked) [Compound 54, 3-((1-butyl-1H-tetrazol-5-yl)(4-(4-fluorophenyl)piperazin-1-yl)methyl)phenol] |
| 109 | – | CCCCn1nnnc1C(c1cccc(O)c1)N1CCN(c2c(C)cccc2C)CC1 (centres unmarked) [Compound 55, 3-((1-butyl-1H-tetrazol-5-yl)(4-(2,6-dimethylphenyl)piperazin-1-yl)methyl)phenol] |
| 24.6 | – | CCCCn1nnnc1C(c1cccc(O)c1)N1CCN(C(=O)OC(C)(C)C)CC1 (centres unmarked) [Compound 56, tert-butyl 4-((1-butyl-1H-tetrazol-5-yl)(3-hydroxyphenyl)methyl)piperazine-1-carboxylate] |
| 24.9 | – | CCCCn1nnnc1C(c1cccc(O)c1)N1CCN(C(=O)OCc2ccccc2)CC1 (centres unmarked) [Compound 57, benzyl 4-((1-butyl-1H-tetrazol-5-yl)(3-hydroxyphenyl)methyl)piperazine-1-carboxylate] |
| 58.4 | – | CCCCn1nnnc1C(c1cccc(O)c1)N1CCN(c2cccc(C(F)(F)F)n2)CC1 (centres unmarked) [Compound 58, 3-((1-butyl-1H-tetrazol-5-yl)(4-(6-(trifluoromethyl)pyridin-2-yl)piperazin-1-yl)methyl)phenol] |
| 94.5 | – | CCCCn1nnnc1C(c1cccc(O)c1)N1CCN(c2ccccc2OC)CC1 (centres unmarked) [Compound 59, 3-((1-butyl-1H-tetrazol-5-yl)(4-(2-methoxyphenyl)piperazin-1-yl)methyl)phenol] |
| 105 | – | CCCCn1nnnc1C(c1cccc(O)c1)N1CCN(c2ncccc2C(F)(F)F)CC1 (centres unmarked) [Compound 60, 3-((1-butyl-1H-tetrazol-5-yl)(4-(3-(trifluoromethyl)pyridin-2-yl)piperazin-1-yl)methyl)phenol] |
| 102 | 2270 | CCCCn1nnnc1C(c1cccc(O)c1)N1CCN(c2ncc(C(F)(F)F)cc2Cl)CC1 (centres unmarked) [Compound 61, 3-((1-butyl-1H-tetrazol-5-yl)(4-(3-chloro-5-(trifluoromethyl)pyridin-2-yl)piperazin-1-yl)methyl)phenol] |
| 19.9 | – | CCCCn1nnnc1C(c1cccc(O)c1)N1CCN(c2ccccn2)CC1 (centres unmarked) [Compound 62, 3-((1-butyl-1H-tetrazol-5-yl)(4-(pyridin-2-yl)piperazin-1-yl)methyl)phenol] |
| 47.9 | – | CCCCn1nnnc1C(c1cccc(O)c1)N1CCN(c2ccc(C(C)=O)cc2)CC1 (centres unmarked) [Compound 63, 1-(4-(4-((1-butyl-1H-tetrazol-5-yl)(3-hydroxyphenyl)methyl)piperazin-1-yl)phenyl)ethanone] |
| 79.8 | – | CCCCn1nnnc1C(c1cccc(O)c1)N1CCN(c2ccccc2F)CC1 (centres unmarked) [Compound 65, 3-((1-butyl-1H-tetrazol-5-yl)(4-(2-fluorophenyl)piperazin-1-yl)methyl)phenol] |
| 106 | – | CCCCn1nnnc1C(c1cccc(O)c1)N1CCN(c2cccc(C)c2C)CC1 (centres unmarked) [Compound 66, 3-((1-butyl-1H-tetrazol-5-yl)(4-(2,3-dimethylphenyl)piperazin-1-yl)methyl)phenol] |
| 63.9 | – | CCCCn1nnnc1C(c1cccc(O)c1)N1CCN(c2ccccc2)CC1 (centres unmarked) [Compound 67, 3-((1-butyl-1H-tetrazol-5-yl)(4-phenylpiperazin-1-yl)methyl)phenol] |
| 17.2 | – | CC(C)(C)n1nnnc1C(c1cccc(O)c1)N1CCN(C/C=C/c2ccccc2)CC1 (centres unmarked) [Compound 68, (E)-3-((1-(tert-butyl)-1H-tetrazol-5-yl)(4-cinnamylpiperazin-1-yl)methyl)phenol] |
| 96 | – | CCCCn1nnnc1C(CCc1ccccc1)N1CCN(c2c(Cl)cncc2Cl)CC1 (centres unmarked) [Compound 69, 1-(1-(1-butyl-1H-tetrazol-5-yl)-3-phenylpropyl)-4-(3,5-dichloropyridin-4-yl)piperazine] |
| 109 | 1280 | CC(C)(C)n1nnnc1C(CCc1ccccc1)N1CCN(c2c(Cl)cncc2Cl)CC1 (centres unmarked) [Compound 70, 1-(1-(1-(tert-butyl)-1H-tetrazol-5-yl)-3-phenylpropyl)-4-(3,5-dichloropyridin-4-yl)piperazine] |
| 11.9 | – | CCCCn1nnnc1C(c1cccc(O)c1)N1CCN(C/C=C/c2ccccc2)CC1 (centres unmarked) [Compound 71, (E)-3-((1-butyl-1H-tetrazol-5-yl)(4-cinnamylpiperazin-1-yl)methyl)phenol] |
| 112 | 790 | CCCCn1nnnc1C(c1cccc(O)c1)N1CCN(c2cc(C)ccc2C)CC1 (centres unmarked) [Compound 72, 3-((1-butyl-1H-tetrazol-5-yl)(4-(2,5-dimethylphenyl)piperazin-1-yl)methyl)phenol] |

— patent US20220062278A1, “SMALL MOLECULE INHIBITORS OF THE ANDROGEN RECEPTOR ACTIVITY AND/OR EXPRESSION AND USES THEREOF” (Arizona Board of Regents on Behalf of the Univeristy of …, priority 2018, published 2022)
